Reference: patent publication US7919531B2, “3,5-dihydroxy-2,4-cyclohexadienones and their derivatives, dietary compositions and fortified food containing them and their uses” (DSM IP Assets B.V., priority 2006, dated 2011)

Tests used:
[1] = target: T1, human serotonin re-uptake transporter (hSERT) (Homo sapiens, UniProt P31645); test: Serotonin uptake inhibition in HEK-293 cells expressing hSERT; type: cell-based; conditions: for Effect on serotonin re-uptake (hSERT dependent uptake of tritiated serotonin into transfected cells): result in words; for Ki: transfected HEK-293 cells, Ki from measured IC50 by Cheng-Prusoff, average +/− s.e.m. of two experiments, read-out: Inhibition constant Ki for tritiated serotonin uptake
T1 construct: host or cells: HEK-293
From the text: HEK-293 cells stably expressing the human serotonin re-uptake transporter (hSERT) were obtained from R. Blakely, Vanderbilt University, USA. The cells were routinely grown in Dulbeco's Modified Eagles Medium (Bioconcept) containing 10% fetal calf serum, penicillin, streptomycin, L-glutamine and the antibiotic G418 and passaged by trypsinisation. On the day of assay, cells from 80% confluent flasks were harvested by gentle washing with warm phosphate buffered saline (PBS). Cells were then washed once by centrifugation and re-suspended in Krebs Ringers bicarbonate buffer (Sigma) supplemented with 35 μM pargyline, 2.2 mM CaCl2, 1 mM ascorbic acid and 5 mM N-2-hydroxyethylpiperazine-N′-2-ethanesulfonic acid (buffer called “Hepes”) at a concentration of 10,000 cells in 160 ul of buffer, and aliquoted into round bottomed polypropylene 96 well microtitre plates (Corning) at 10,000 cells per well. Serotonin uptake into the cells was determined by addition of radio-labeled (3H) serotonin (GE Healthcare) to a concentration of 20 nM, and incubation for 40 minutes at 37° C. with gentle shaking. At the end of this time unincorporated label was removed by filtration though Unifilter 96 GF/B plates (Perkin Elmer) using a Tomtec Mach III M cell harvester. The incorporated serotonin retained on the plates was quantified by liquid scintillation counting using Microscint-40/Topcount (Perkin Elmer).
The effect of (−)-humulone and lupulone on the serotonin uptake was determined by their inclusion in the assay at a range of concentrations between 0.03 and 100 μM for 10 minutes prior to and during the addition of (3H) serotonin. Serotonin uptake via the transporter was inhibited by (−)-humulone and lupulone, respectively, in a dose dependent manner.
The calculated inhibition constants Ki, derived from the measured IC50 using the Cheng-Prusoff equation (Y. C. Cheng, W. H. Prusoff, Biochem. Pharmacol. 1973, 22, p. 3099-3108), for inhibition of serotonin uptake by (−)-humulone and lupulone are shown in Table 1.

mouse [2] = test: Primary observation (Irwin) test in the mouse; type: in vivo; conditions: 30 mg/kg i.p., 5 mice per group
From the text: The method, which detects the first toxic dose, the active dose-range and the principal effects of a test substance on behaviour and physiological function, follows that described by Irwin (Irwin S. Comprehensive observational assessment: A systematic quantitative procedure for assessing the behavioural and physiologic state of the mouse. Psychopharmacologia, 1968, 13, 222-257).
3 treated groups were compared with the same control at any one time. All animals within a treatment group were observed simultaneously.
Behavioural modifications, physiological and neurotoxicity symptoms, pupil diameter and rectal temperature were recorded according to a standardized observation grid derived from that of Irwin. The grid contains the following items: lethality*, convulsions*, tremor*, Straub*, sedation, excitation, abnormal gait* (rolling, tip-toe), jumps*, motor incoordination*, writhes*, piloerection*, stereotypies* (sniffing, chewing, head movements), head twitches*, scratching*, respiration*, aggressiveness*, fear, reactivity to touch, muscle tone, loss of righting reflex, ptosis, exopthalmos, loss of grasping, akinesia, catalepsy, loss of traction, loss of corneal reflex, analgesia, defecation, salivation, lacrimation, pupil diameter (Unit=1/45 mm) and rectal temperature.
Observations were performed 15, 30, 60, 120 and 180 minutes after administration of the test substance ((−)-humulone) and also 24 hours later. The symptoms marked (*) were observed continuously from 0 to 15 minutes after administration. 5 mice were studied per group.
(−)-Humulone was solubilized in physiological saline and injected into mice intraperitoneally.

mouse [3] = test: Marble burying test in the mouse; type: in vivo; conditions: for Number of marbles covered by sawdust, mean ± s.e.m.: vehicle 20.1 ± 1.7
From the text: The method applied here follows that described by Broekkamp et al. (European Journal of Pharmacology 1986, 126, 223-229.). Mice (n=15 per treatment group) were individually placed in transparent plastic cages (33×21×18 cm) with 5 cm of sawdust on the floor and 25 marbles (diameter 1 cm) grouped in the centre of the cage. A second, up-turned, cage served as a lid. The number of marbles covered by sawdust (by at least two-thirds) was counted at the end of the 30-minute test period. Tests were performed by investigators blind to the drug treatment protocol.
Prior to testing, all test cages and marbles were “impregnated” by leaving 10 naive mice in each cage for 15 minutes.
(−)-Humulone was solubilized in physiological saline. The control substance fluoxetine (Prozac®) (Lilly), batches n^o A069667 and A058238) was dispersed in 0.2% hydroxypropylmethylcellulose (HPMC) in physiological saline.
(−)-Humulone was evaluated at 3, 10 and 30 mg/kg, administered i.p. 30 minutes before the test, and compared with a vehicle control group. Fluoxetine (32 mg/kg), administered under the same experimental conditions, was used as a reference substance.
Data were analysed by comparing treated groups with vehicle control using unpaired Student's t-tests.

mouse [4] = test: Light dark box test in the mouse after subchronic oral gavage; type: in vivo; conditions: for Number of crossings, mean ± sem / Time spent in light compartment, mean ± sem: 5 h and 1 h before test; for Number of crossings, mean ± sem: vehicle 6.5 ± 1.0; for Time spent in light compartment, mean ± sem: vehicle 64.4 ± 4.7; for Number of crossings, % change / Time spent in light compartment, % change: versus vehicle control
From the text: The method, which detects anxiolytic activity, follows that described by Crawley (Pharmacol. Biochem. Behav. 1981, 15, 695-699). Anxiolytics increase the time spent in the light compartment.
Animals were placed into the light compartment of a 2-compartment box with one half light and open (25×27×27 cm) and the other half dark and closed (20×27×27 cm). The time spent in each compartment as well as the number of times the animal crosses from one side to the other is scored during a 3-minute test. 15 mice were studied per group. The test was performed blind. […]
Clobazam (32 mg/kg orally), administered 1 hour before the test, will be used as reference substance. Mice in this group received additional administrations of vehicle at 25 and 5 hours before the test in order to maintain experimental blinding.

[5] = 50 mg/kg p.o., listed as (−)-Humulone

T1 sequence (P31645 whole entry): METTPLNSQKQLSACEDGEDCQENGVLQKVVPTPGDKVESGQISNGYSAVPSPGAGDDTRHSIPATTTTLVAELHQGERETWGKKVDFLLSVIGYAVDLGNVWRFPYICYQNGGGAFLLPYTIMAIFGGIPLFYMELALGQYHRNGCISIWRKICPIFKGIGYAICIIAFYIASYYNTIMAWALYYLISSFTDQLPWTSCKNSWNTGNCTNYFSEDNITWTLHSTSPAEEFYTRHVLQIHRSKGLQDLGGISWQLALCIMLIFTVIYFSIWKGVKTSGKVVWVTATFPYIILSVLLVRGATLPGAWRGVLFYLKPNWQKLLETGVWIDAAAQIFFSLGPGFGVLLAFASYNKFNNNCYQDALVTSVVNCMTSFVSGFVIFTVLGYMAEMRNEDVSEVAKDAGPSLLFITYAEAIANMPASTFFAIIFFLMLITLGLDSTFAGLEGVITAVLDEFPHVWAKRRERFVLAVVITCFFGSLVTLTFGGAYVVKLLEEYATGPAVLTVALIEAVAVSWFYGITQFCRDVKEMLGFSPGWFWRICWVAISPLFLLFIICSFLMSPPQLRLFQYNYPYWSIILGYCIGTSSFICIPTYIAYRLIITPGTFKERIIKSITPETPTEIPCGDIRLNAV

In the case of “6-hydroxycolupulone [compound 5, reference compound]”, the “Effect on serotonin re-uptake (hSERT dependent uptake of tritiated serotonin into transfected cells)” value (from here on “Effect on serotonin re-uptake”) [1] is reported as “no effect”.

For “6-hydroxylupulone [compound 4, reference compound]”, the “Effect on serotonin re-uptake” value [1] was “no effect”.

In the case of `CC(C)=CCC1C(=O)C(C(=O)CC(C)C)=C(O)C(O)(CC=C(C)C)C1=O` (single isomer, unassigned; (-)) [(−)-humulone], the Ki [1] is reported as 16.9 µM, the “Decreased fear, number of mice” value (mouse [2]; at 30 minutes) is reported as 3 mice and the “Decreased muscle tone, number of mice” value (mouse [2]; at 30 minutes) is reported as 4 mice. For the same molecule, the “Decreased fear, number of mice” value (mouse [2]; at 60 minutes) was 1 mouse, the “Decreased muscle tone, number of mice” value (mouse [2]; at 60 minutes) was 1 mouse and the “Number of marbles covered by sawdust, % change from control” value (“Number … % change from control” below) (mouse [3]; 3 mg/kg i.p. −30 min) was −9%. For the same molecule, the “Number of marbles covered by sawdust, mean ± s.e.m.” value (from here on “Number … mean ± s.e.m.”) (mouse [3]; 3 mg/kg i.p. −30 min) was 18.3 ± 1.7 (NS), the “Number … % change from control” value (mouse [3]; 10 mg/kg i.p. −30 min) was −13% and the “Number … mean ± s.e.m.” value (mouse [3]; 10 mg/kg i.p. −30 min) was 17.5 ± 2.0 (NS). The “Number … % change from control” value (mouse [3]; 30 mg/kg i.p. −30 min) was −81%, the “Number … mean ± s.e.m.” value (mouse [3]; 30 mg/kg i.p. −30 min) was 3.8 ± 1.5 (***) and the “Number of crossings, mean ± sem” value (mouse [4]; 50 mg/kg p.o. -24 h) was 13.7 ± 1.3. For the same molecule, the “Time spent in light compartment, mean ± sem” value (shortened to “Time spent … mean ± sem”) (mouse [4]; 50 mg/kg p.o. -24 h) was 95.4 ± 3.8 s, the “Number of crossings, % change” value (mouse [4]; 50 mg/kg p.o.) was “+111%” and the “Time spent in light compartment, % change” value (“Time spent … % change” for short) (mouse [4]; 50 mg/kg p.o.) was “+48%”. For the same molecule, the “Number of crossings, % change” value (mouse [4]; [5]) was “+111%”, the “Time spent … % change” value (mouse [4]; [5]) was “+48%” and the “Number of crossings, mean ± sem” value (mouse [4]; 100 mg/kg p.o. -24 h) was 7.9 ± 1.0. The “Time spent … mean ± sem” value (mouse [4]; 100 mg/kg p.o. -24 h) was 86.4 ± 8.9 s, the “Number of crossings, % change” value (mouse [4]; 100 mg/kg p.o.) was “+22%” and the “Time spent … % change” value (mouse [4]; 100 mg/kg p.o.) was “+34%”. For the same molecule, the “Time spent … % change” value (mouse [4]; 100 mg/kg p.o., listed as (−)-Humulone) was “+34%”, the “Number of crossings, mean ± sem” value (mouse [4]; 200 mg/kg p.o. -24 h) was 8.3 ± 1.2 and the “Time spent … mean ± sem” value (mouse [4]; 200 mg/kg p.o. -24 h) was 71.5 ± 8.8 s. For the same molecule, the “Number of crossings, % change” value (mouse [4]; 200 mg/kg p.o.) was “+28%”, the “Time spent … % change” value (mouse [4]; 200 mg/kg p.o.) was “+11%” and the “Time spent … % change” value (mouse [4]; 200 mg/kg p.o., listed as (−)-Humulone) was “+11%”.

`CNCCC(Oc1ccc(C(F)(F)F)cc1)c1ccccc1` (stereo not shown) [FLUOXETINE, fluoxetine, reference compound] was tested, and the “Number … % change from control” value (mouse [3]; 32 mg/kg i.p. −30 min) was −91% and the “Number … mean ± s.e.m.” value (mouse [3]; 32 mg/kg i.p. −30 min) was 1.9 ± 1.0 (***).

In the case of `CC(C)=CCC1=C(O)C(C(=O)CC(C)C)=C(O)C(CC=C(C)C)(CC=C(C)C)C1=O` [Lupulone, lupulone], the “Effect on serotonin re-uptake” value [1] is reported as “inhibited” and the Ki [1] is reported as 6 µM.

With `CC(C)=CCC(=O)C1(O)C(O)=C(C(=O)CC(C)C)C(=O)C1CC=C(C)C` (stereo not shown) [compound 3, isohumulone, reference compound] the “Effect on serotonin re-uptake” value [1] was “no effect”.
